Assays:
[1] = test system: A549-ACE2; experiment: drug-induced phospholipidosis relative to tamoxifen; higher = more phospholipidosis
[2] = test system: A549-ACE2 infected with SARS-CoV-2; experiment: morphology score (similarity to uninfected cells); higher = more like uninfected cells; conditions: 24 h
[3] = test system: U2OS; experiment: drug sensitivity score (DSS) for viability; higher = more toxic; extreme values may be limits of the assay; conditions: 72 h
[4] = test system: Calu-3; experiment: as above; conditions: 72 h
[5] = test system: Vero E6; experiment: as above; conditions: 72 h
[6] = test system: HepG2; experiment: as above; conditions: 72 h
[7] = test system: Caco-2; experiment: as above; conditions: 72 h
[8] = test system: A549-ACE2 infected with SARS-CoV-2; experiment: SARS-CoV-2 infection rate relative to DMSO; higher = more infection; conditions: 24 h
[9] = test system: U2OS; experiment: cell viability relative to DMSO; higher = less toxic; conditions: 72 h
[10] = test system: Calu-3; experiment: as above; conditions: 72 h
[11] = test system: Vero E6; experiment: as above; conditions: 72 h
[12] = test system: HepG2; experiment: as above; conditions: 72 h
[13] = test system: Caco-2; experiment: as above; conditions: 72 h
[14] = test system: A549-ACE2; experiment: phospholipidosis EC50; higher = less potent phospholipidosis inducer
[15] = test system: A549-ACE2 infected with SARS-CoV-2; experiment: cell count relative to DMSO; higher = less toxic; conditions: 24 h
[16] = test system: U2OS; experiment: relative viability EC50 (midpoint between 100% and the lowest measured viability); higher = less toxic; conditions: 72 h
[17] = test system: Calu-3; experiment: as above; conditions: 72 h
[18] = test system: Vero E6; experiment: as above; conditions: 72 h
[19] = test system: HepG2; experiment: as above; conditions: 72 h
[20] = test system: Caco-2; experiment: as above; conditions: 72 h

COc1cc2c(NC3CCN(C(C)C)CC3)nc(N3CCC(F)(F)CC3)nc2cc1OCCCN1CCCC1 [UNC0642]
drug-induced phospholipidosis [%], [1]
Conditions | 0.3 µM | 0.833333 µM | 3.33333 µM | 6.66667 µM | 10 µM | 30 µM
24 h | 4.47 | 9.42 | 29.6 | 35.7 | 32.6 | 5.01
48 h | 8.91 | 12.1 | 34 | 48.6 | 51.8 | 0.44
72 h | 9.24 | 11 | 36.7 | 55.6 | 62.4 | –

Conditions | SARS-CoV-2 infection rate [%] | cell count [%] | cell viability [%] | morphology score | phospholipidosis EC50 [µM]
[2], 0.3 µM | – | – | – | 0.09 | –
[2], 3 µM | – | – | – | 0.76 | –
[2], 10 µM | – | – | – | 0.09 | –
[2], 30 µM | – | – | – | -0.23 | –
[8], 0.3 µM | 87 | – | – | – | –
[8], 3 µM | 21 | – | – | – | –
[8], 10 µM | 13 | – | – | – | –
[8], 30 µM | 35 | – | – | – | –
[9], 1 nM | – | – | 98.6 | – | –
[9], 10 nM | – | – | 95.4 | – | –
[9], 100 nM | – | – | 100 | – | –
[9], 1000 nM | – | – | 98.6 | – | –
[9], 10000 nM | – | – | 81.1 | – | –
[10], 1 nM | – | – | 93.9 | – | –
[10], 10 nM | – | – | 95.1 | – | –
[10], 100 nM | – | – | 95.3 | – | –
[10], 1000 nM | – | – | 96.6 | – | –
[10], 10000 nM | – | – | 32.9 | – | –
[11], 1 nM | – | – | 96.6 | – | –
[11], 10 nM | – | – | 102 | – | –
[11], 100 nM | – | – | 91.6 | – | –
[11], 1000 nM | – | – | 108 | – | –
[11], 10000 nM | – | – | 105 | – | –
[12], 1 nM | – | – | 95.1 | – | –
[12], 10 nM | – | – | 103 | – | –
[12], 100 nM | – | – | 106 | – | –
[12], 1000 nM | – | – | 102 | – | –
[12], 10000 nM | – | – | 24.8 | – | –
[13], 1 nM | – | – | 101 | – | –
[13], 10 nM | – | – | 92.5 | – | –
[13], 100 nM | – | – | 104 | – | –
[13], 1000 nM | – | – | 106 | – | –
[13], 10000 nM | – | – | 99.7 | – | –
[14], 48 h | – | – | – | – | 1.19
[14], 72 h | – | – | – | – | 3.66
[15], 0.3 µM | – | 94 | – | – | –
[15], 3 µM | – | 122 | – | – | –
[15], 10 µM | – | 123 | – | – | –
[15], 30 µM | – | 89 | – | – | –

Conditions | drug sensitivity score | relative viability EC50 [µM]
[3] | 0.7 | –
[4] | 4.2 | –
[5] | 0 | –
[6] | 4 | –
[7] | 0 | –
[16] | – | > 10
[17] | – | 2.78
[18] | – | > 10
[19] | – | 3.34
[20] | – | > 10
